Laboratory results from patent US7432260B2, “Pyrimidine compounds” (Cyclacel Limted, priority 2002, dated 2008).

How the values were obtained:
[1] = molecular target: GSK-3β (Homo sapiens, UniProt P49841); test: Kinase assay GSK-3β; assay type: biochemical; conditions: Table 2; read-out: Kinase Inhibition IC50 GSK-3β
Protocol: (§1) Kinase assays. […] This was achieved by measurement of incorporation of radioactive phosphate from ATP into appropriate polypeptide substrates. Recombinant protein kinases and kinase complexes were produced or obtained commercially. Assays were performed using 96-well plates and appropriate assay buffers (typically 25 mM β-glycerophosphate, 20 mM MOPS, 5 mM EGTA, 1 mM DTT, 1 mM […], pH 7.4), into which were added 2-4 μg of active enzyme with appropriate substrates. The reactions were initiated by addition of Mg/ATP mix (15 mM MgCl2+100 μM ATP with 30-50 kBq per well of [γ-^32P]-ATP) and mixtures incubated as required at 30° C. Reactions were stopped on ice, followed by filtration through p81 filterplates or GF/C filterplates (Whatman Polyfiltronics, Kent, UK). After washing 3 times with 75 mM aq orthophosphoric acid, plates were dried, scintillant added and incorporated radioactivity measured in a scintillation counter (TopCount, Packard Instruments, Pangbourne, Berks, UK). Compounds for kinase assay were made-up as 10 mM stocks in DMSO and diluted into 10% DMSO inrassay buffer.

[2] = molecular target: CDK7/cyclin H (Homo sapiens, UniProt P50613); test: CDK7 assay; assay type: biochemical; conditions: Table 2; read-out: Kinase Inhibition IC50 CDK7 cyclin H
Protocol: as §1
(§2) CDK 7 and 9 assays. CTD peptide substrate (biotinyl-Ahx-(Tyr-Ser-Pro-Thr-Ser-Pro-Ser)4-NH2; 1-2 mg/mL) and recombinant human CDK7/cyclin H, CDK9/cyclin T1, or CDK9/cyclin K (0.5-2 μg) were incubated for 45 min at 30° C. in the presence of varying amounts of test compound in 20 mM MOPS pH 7.2, 25 mM β-glycerophosphate, 5 mM EGTA, 1 mM DTT, 1 mM sodium vanadate, 15 mM MgCl2, and 100 μM ATP (containing a trace amount of ^32PγATP) in a total volume of 25 μL in a 96-well microtiter plate. The reaction was stopped by placing the plate on ice for 2 min. Avidin (50 μg) was added to each well, and the plate was incubated at room temp for 30 min. The samples were transferred to a 96-well P81 filter plate, and washed (4×200 μL per well) with 75 mM phosphoric acid. Microscint 40 scintillation liquid (50 μL) was added to each well, and the amount of ^32P incorporation for each sample was measured using a Packard Topcount microplate scintillation counter.

[3] = molecular target: CDK2/cyclin A (Homo sapiens, UniProt P24941); test: Kinase assay CDK2/cyclin A; assay type: biochemical; conditions: Table 2; read-out: Kinase Inhibition IC50 CDK2 cyclin A
Protocol: as §1

[4] = molecular target: CDK1/cyclin B (Homo sapiens, UniProt P06493); test: Kinase assay CDK1/cyclin B; assay type: biochemical; conditions: Table 2; read-out: Kinase Inhibition IC50 CDK1 cyclin B
Protocol: as §1

[5] = system: HT29; test: 72-h MTT cytotoxicity assay HT29; assay type: cell-based; conditions: Homo sapiens, HT-29, 72 h, Table 4
Protocol: (§3) MTT cytotoxicity assay. […] Standard 72-h MTT (thiazolyl blue; 3-[4,5-dimethylthiazol-2-yl]-2,5-diphenyltetrazolium bromide) assays were performed (Haselsberger, K.; Peterson, D. C.; Thomas, D. G.; Darling, J. L. Anti Cancer Drugs 1996, 7, 331-8; Loveland, B. E.; Johns, T. G.; Mackay, I. R.; Vaillant, F.; Wang, Z. X.; Hertzog, P. J. Biochemistry International 1992, 27, 501-10). In short: cells were seeded into 96-well plates according to doubling time and incubated overnight at 37° C. Test compounds were made up in DMSO and a 1/3 dilution series prepared in 100 μL cell media, added to cells (in triplicates) and incubated for 72 ho at 37° C. MTT was made up as a stock of 5 mg/mL in cell media and filter-sterilised. Media was removed from cells followed by a wash with 200 μL PBS.
(§4) MTT solution was then added at 20 μL per well and incubated in the dark at 37° C. for 4 h. MTT solution was removed and cells again washed with 200 μL PBS. MTT dye was solubilised with 200 μL per well of DMSO with agitation.

[6] = system: Saos-2; test: 72-h MTT cytotoxicity assay Saos-2; assay type: cell-based; conditions: Homo sapiens, SAOS-2, 72 h, Table 4
Protocol: as §3, §4

[7] = system: A549; test: 72-h MTT cytotoxicity assay A549; assay type: cell-based; conditions: Homo sapiens, A549, 72 h, Table 4
Protocol: as §3, §4

[8] = molecular target: CDK9/cyclin T1 (Homo sapiens, UniProt P50750); test: CDK9 assay; assay type: biochemical; conditions: Table 2; read-out: Kinase Inhibition IC50 CDK9 cyclin T1
Protocol: as §1, §2

[9] = molecular target: CDK2/cyclin E (Homo sapiens, UniProt P24941); test: Kinase assay CDK2/cyclin E; assay type: biochemical; conditions: Table 2; read-out: Kinase Inhibition IC50 CDK2 cyclin E
Protocol: as §1

[10] = molecular target: CDK4/cyclin D1 (Homo sapiens, UniProt P11802); test: Kinase assay CDK4/cyclin D1; assay type: biochemical; conditions: Table 2; read-out: Kinase Inhibition IC50 CDK4 cyclin D1
Protocol: as §1

Sequence of GSK-3β (P49841 whole entry): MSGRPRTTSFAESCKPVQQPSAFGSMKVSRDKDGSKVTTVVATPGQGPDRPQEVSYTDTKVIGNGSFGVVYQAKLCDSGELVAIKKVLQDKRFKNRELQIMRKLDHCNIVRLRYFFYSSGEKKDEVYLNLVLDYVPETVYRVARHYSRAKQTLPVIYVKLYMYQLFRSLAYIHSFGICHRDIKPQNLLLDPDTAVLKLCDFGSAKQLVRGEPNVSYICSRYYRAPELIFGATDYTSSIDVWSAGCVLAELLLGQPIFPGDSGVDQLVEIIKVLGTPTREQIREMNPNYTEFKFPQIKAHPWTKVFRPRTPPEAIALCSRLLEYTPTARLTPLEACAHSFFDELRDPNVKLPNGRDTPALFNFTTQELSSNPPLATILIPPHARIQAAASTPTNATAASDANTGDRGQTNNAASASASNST
Sequence of CDK1/cyclin B (P06493 whole entry): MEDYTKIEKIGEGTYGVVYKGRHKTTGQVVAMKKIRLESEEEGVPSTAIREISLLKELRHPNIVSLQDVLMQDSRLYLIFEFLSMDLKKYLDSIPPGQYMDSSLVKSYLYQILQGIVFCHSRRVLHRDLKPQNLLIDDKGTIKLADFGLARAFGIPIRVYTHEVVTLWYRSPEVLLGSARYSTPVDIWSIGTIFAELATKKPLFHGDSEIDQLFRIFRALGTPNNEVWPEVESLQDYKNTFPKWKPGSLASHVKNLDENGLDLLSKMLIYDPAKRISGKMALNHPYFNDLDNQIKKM
Sequence of CDK1/cyclin B (P14635 whole entry partner): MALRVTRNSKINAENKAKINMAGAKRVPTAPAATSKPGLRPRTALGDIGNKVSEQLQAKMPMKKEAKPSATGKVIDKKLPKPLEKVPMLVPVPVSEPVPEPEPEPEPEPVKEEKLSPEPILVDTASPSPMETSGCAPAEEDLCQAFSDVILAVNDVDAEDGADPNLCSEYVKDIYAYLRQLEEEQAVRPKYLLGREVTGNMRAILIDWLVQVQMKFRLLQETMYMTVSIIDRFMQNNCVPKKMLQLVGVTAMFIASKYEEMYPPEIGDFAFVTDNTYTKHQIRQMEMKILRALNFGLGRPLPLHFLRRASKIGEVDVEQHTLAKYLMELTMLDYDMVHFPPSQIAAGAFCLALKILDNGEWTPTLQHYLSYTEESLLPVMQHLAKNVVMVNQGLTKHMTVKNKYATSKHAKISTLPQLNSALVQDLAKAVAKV
Sequence of CDK4/cyclin D1 (P11802 whole entry): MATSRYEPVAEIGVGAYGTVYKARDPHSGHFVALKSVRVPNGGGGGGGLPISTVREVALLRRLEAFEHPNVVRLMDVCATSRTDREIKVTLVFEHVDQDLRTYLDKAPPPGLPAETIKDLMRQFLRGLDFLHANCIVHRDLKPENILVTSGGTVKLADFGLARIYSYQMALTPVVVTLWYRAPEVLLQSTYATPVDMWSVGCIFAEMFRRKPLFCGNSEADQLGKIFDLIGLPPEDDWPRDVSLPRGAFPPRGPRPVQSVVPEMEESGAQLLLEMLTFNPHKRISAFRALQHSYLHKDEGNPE
Sequence of CDK4/cyclin D1 (P24385 whole entry partner): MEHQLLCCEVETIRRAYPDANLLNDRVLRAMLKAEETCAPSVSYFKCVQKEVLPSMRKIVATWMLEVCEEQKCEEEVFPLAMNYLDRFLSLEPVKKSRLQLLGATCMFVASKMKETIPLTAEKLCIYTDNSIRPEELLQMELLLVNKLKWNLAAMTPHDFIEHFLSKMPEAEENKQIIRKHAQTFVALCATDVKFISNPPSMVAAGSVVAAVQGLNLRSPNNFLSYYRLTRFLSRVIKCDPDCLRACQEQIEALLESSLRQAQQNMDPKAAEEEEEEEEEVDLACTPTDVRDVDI
Sequence of CDK7/cyclin H (P50613 whole entry): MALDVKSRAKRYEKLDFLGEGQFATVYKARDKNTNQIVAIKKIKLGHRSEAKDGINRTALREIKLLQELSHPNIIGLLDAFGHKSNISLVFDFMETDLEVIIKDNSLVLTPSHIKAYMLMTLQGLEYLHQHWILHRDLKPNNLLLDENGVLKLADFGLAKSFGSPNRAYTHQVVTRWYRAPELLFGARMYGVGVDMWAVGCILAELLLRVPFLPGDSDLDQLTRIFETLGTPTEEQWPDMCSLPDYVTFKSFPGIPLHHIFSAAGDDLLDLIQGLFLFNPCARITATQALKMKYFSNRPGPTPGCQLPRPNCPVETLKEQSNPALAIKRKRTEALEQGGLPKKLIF
Sequence of CDK9/cyclin T1 (P50750 whole entry): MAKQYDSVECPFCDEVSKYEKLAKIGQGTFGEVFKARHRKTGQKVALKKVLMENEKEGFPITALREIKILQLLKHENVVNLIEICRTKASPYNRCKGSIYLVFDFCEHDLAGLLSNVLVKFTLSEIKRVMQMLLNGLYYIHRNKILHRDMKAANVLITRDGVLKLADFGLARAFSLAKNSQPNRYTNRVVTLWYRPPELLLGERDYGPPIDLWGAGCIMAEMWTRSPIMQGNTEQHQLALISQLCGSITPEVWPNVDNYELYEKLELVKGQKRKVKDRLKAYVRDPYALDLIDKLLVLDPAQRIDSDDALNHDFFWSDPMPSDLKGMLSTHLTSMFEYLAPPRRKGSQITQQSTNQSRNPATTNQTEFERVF
Sequence of CDK9/cyclin T1 (O60563 whole entry partner): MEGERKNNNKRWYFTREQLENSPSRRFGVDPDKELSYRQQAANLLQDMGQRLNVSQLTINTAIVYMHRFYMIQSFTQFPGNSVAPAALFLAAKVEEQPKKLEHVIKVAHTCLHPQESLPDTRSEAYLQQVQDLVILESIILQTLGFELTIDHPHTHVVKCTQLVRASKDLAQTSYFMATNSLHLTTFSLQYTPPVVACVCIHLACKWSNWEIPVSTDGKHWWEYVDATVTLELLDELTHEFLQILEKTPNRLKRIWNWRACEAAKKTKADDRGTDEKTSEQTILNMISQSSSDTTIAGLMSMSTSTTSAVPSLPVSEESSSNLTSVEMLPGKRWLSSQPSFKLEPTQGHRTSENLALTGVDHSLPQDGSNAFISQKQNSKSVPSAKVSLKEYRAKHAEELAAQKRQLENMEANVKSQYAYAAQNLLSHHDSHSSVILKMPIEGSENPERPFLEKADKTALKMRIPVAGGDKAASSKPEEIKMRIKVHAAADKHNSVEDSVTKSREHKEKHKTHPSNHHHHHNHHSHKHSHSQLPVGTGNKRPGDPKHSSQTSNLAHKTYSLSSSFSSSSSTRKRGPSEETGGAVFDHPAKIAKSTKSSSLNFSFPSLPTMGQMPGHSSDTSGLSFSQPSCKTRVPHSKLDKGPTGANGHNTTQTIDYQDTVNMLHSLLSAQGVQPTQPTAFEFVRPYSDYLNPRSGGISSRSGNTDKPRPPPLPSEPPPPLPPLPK

IC50 [1] [µM] | IC50 [2] [µM] | IC50 [3] [µM] | IC50 [4] [µM] | IC50 [8] [µM] | IC50 [9] [µM] | IC50 [10] [µM] | SMILES | IC50 [5] [µM] | IC50 [6] [µM] | IC50 [7] [µM]
2.4 | 2.4 | 0.006 | 0.33 | 4.2 | 0.22 |  | Cc1nc(N2CCOCC2)sc1-c1ccnc(Nc2cccc([N+](=O)[O-])c2)n1 [Compound 71, [4-(4-Methyl-2-morpholin-4-yl-thiazol-5-yl)-pyrimidin-2-yl]-(3-nitro-phenyl)-amine] | 71 | 10 | 80
5.4 | 11 | 0.14 | 1.8 |  | 0.15 | 3.2 | Cc1nc(N)sc1-c1ccnc(Nc2ccc(S(C)(=O)=O)cc2)n1 [Compound 76, [4-(2-Amino-4-methyl-thiazol-5-yl)-pyrimidin-2-yl]-(4-methanesulfonyl-phenyl)-amine] | 1.8 | 1.3 | 5.8
1.2 | 4 | 1.3 | 2.7 |  | 0.014 | 2.3 | CNc1nc(C)c(-c2ccnc(Nc3cccc(CNS(=O)(=O)C(F)(F)F)c3)n2)s1 [Compound 82, C,C,C-Trifluoro-N-{3-[4-(4-methyl-2-methylamino-thiazol-5-yl)-pyrimidin-2-ylamino]-benzyl}-methanesulfonamide] |  |  | 
1 | 0.37 | 0.15 | 0.48 |  | 0.025 | 0.67 | CNc1nc(C)c(-c2ccnc(Nc3cccc(CNS(C)(=O)=O)c3)n2)s1 [Compound 83, N-{3-[4-(4-Methyl-2-methylamino-thiazol-5-yl)-pyrimidin-2-ylamino]-benzyl}-methanesulfonamide] |  |  | 
0.3 | 0.43 | 0.05 | 0.14 |  | 0.076 | 0.3 | Cc1nc(N)sc1-c1ccnc(Nc2cccc(S(C)(=O)=O)c2)n1 [Compound 84, [4-(2-Amino-4-methyl-thiazol-5-yl)-pyrimidin-2-yl]-(3-methanesulfonyl-phenyl)-amine] |  |  | 
0.47 | 2.8 | 1.2 | 15 |  | 0.64 | 1.3 | Cc1c(-c2ccnc(Nc3ccc(N4CCOCC4)cc3)n2)sc(=O)n1C [Compound 92, 3,4-Dimethyl-5-[2-(4-morpholin-4-yl-phenylamino)-pyrimidin-4-yl]-3H-thiazol-2-one] |  |  | 
0.43 | 0.36 | 1.1 | 4.4 | 0.3 | 0.84 | 0.51 | Cc1c(-c2ccnc(Nc3ccc(N4CCN(C)CC4)cc3)n2)sc(=O)n1C [Compound 93, 3,4-Dimethyl-5-{2-[4-(4-methyl-piperazin-1-yl)-phenylamino]-pyrimidin-4-yl}-3H-thiazol-2-one] |  |  | 

The remaining lines, values behind:

SMILES | IC50 [1] [µM] | IC50 [2] [µM] | IC50 [3] [µM] | IC50 [4] [µM] | IC50 [8] [µM] | IC50 [9] [µM] | IC50 [10] [µM] | IC50 [5] [µM] | IC50 [6] [µM] | IC50 [7] [µM]
Cc1nc(NC(=O)CCl)sc1-c1ccnc(Nc2cccc(Cl)c2)n1 [Compound 25, 2-Chloro-N-{5-[2-(3-chloro-phenylamino)-pyrimidin-4-yl]-4-methyl-thiazol-2-yl}-acetamide] | 0.083 | 3.2 | 3 | 9.4 | 0.68 | 0.22 | 0.97 | 1.3 | 1.6 | 0.97
Cc1nc(NC(=O)CNCCOCCO)sc1-c1ccnc(Nc2ccc(N(C)C)cc2)n1 [Compound 29, N-{5-[2-(4-Dimethylamino-phenylamino)-pyrimidin-4-yl]-4-methyl-thiazol-2-yl}-2-[2-(2-hydroxy-ethoxy)-ethylamino]-acetamide] | 0.56 | 1.2 | 0.49 | 0.86 |  | 0.47 | 1.1 | 2.6 | 0.72 | 0.69
Cc1nc(NS(C)(=O)=O)sc1-c1ccnc(Nc2cccc([N+](=O)[O-])c2)n1 [Compound 32, N-{4-Methyl-5-[2-(3-nitro-phenylamino)-pyrimidin-4-yl]-thiazol-2-yl}-methanesulfonamide] | 0.21 |  |  |  | 0.0014 | 0.005 | 1.1 | 0.17 | 0.16 | 0.1
Cc1nc(NC(=O)CCl)sc1-c1ccnc(Nc2ccc(Cl)cc2)n1 [Compound 34, 2-Chloro-N-{5-[2-(4-chloro-phenylamino)-pyrimidin-4-yl]-4-methyl-thiazol-2-yl}-acetamide] | 0.73 |  |  |  |  | 1.4 | 7 | 3.2 | 3.3 | 3.9
Cc1nc(C)c(-c2ccnc(Nc3ccc(NC(=O)Cn4ccnc4)cc3)n2)s1 [Compound 54, N-{4-[4-(2,4-Dimethyl-thiazol-5-yl)-pyrimidin-2-ylamino]-phenyl}-2-imidazol-1-yl-acetamide] | 19 | 2.1 | 57 | 1.3 | 0.11 | 0.098 | 0.032 | 2.7 | 1.9 | 2.9
Cc1nc(N2CCOCC2)sc1-c1ccnc(Nc2cccc(O)c2)n1 [Compound 55, 3-[4-(4-Methyl-2-morpholin-4-yl-thiazol-5-yl)-pyrimidin-2-ylamino]-phenol] | 67 | 2.2 | 61 | 2.4 | 2.1 | 0.079 | 1 | 5.1 | 1.4 | 2.3
Cc1nc(N2CCOCC2)sc1-c1ccnc(Nc2ccc(N(C)C)cc2)n1 [Compound 57, N,N-Dimethyl-N′-[4-(4-methyl-2-morpholin-4-yl-thiazol-5-yl)-pyrimidin-2-yl]-benzene-1,4-diamine] | 74 | 0.19 | 73 | 7.7 | 12 | 0.35 | 0.071 | 0.24 | 3.8 | 2.7
CNc1nc(C)c(-c2ccnc(Nc3ccc(N4CCN(C(C)=O)CC4)cc3)n2)s1 [Compound 61, 1-(4-{4-[4-(4-Methyl-2-methylamino-thiazol-5-yl)-pyrimidin-2-ylamino]-phenyl}-piperazin-1-yl)-ethanone] | 6.8 | 2.3 |  | 2.5 | 1.5 |  | 0.042 | 0.53 | 1 | 0.72
CCNc1nc(C)c(-c2ccnc(Nc3cccc(CO)c3)n2)s1 [Compound 68, {3-[4-(2-Ethylamino-4-methyl-thiazol-5-yl)-pyrimidin-2-ylamino]-phenyl}-methanol] | 0.82 | 0.48 | 0.061 | 0.15 |  | 0.065 | 0.042 |  |  | 
